This assay concerns ROS activity. As to the kind of experiment: Dihydrorhodamine-123 (DHR123) fluorescence measure of oxidation due to ROS, with H2O2 as oxidant. To be noted: DBP titrated in solution against H2O2 in the presence of DHR123 (FIG. 5). An excerpt:
The ability of DBP to inhibit ROS activity was verified both in solution and when bound to glut-pretreated pericardium, as described above, by monitoring the fluorescence of dihydrorhodamine-123 (DHR123; Molecular Probes Inc., Eugene Oreg.), which is a commonly used measure of oxidation due to ROS. Briefly, the capacity of DBP to reduce ROS activity was proven in this system by titrating DBP in solution against the oxidant hydrogen peroxide (H2O2) in the presence of DHR123.

The source of these data is patent US10058419B2, “Oxidation resistant bioprosthetic tissues and preparation thereof” (The Children's Hospital of Philadelphia, priority 2011, dated 2018).

Turning to `CC(C)(C)c1cc(CCCN)cc(C(C)(C)C)c1O.Cl` [DBP, 4-hydroxy-3,5-di-tert-butylphenylpropylamine hydrochloride], the “oxidation signal (DHR123 fluorescence)” value was “dose-dependent inhibition of oxidation signal”.
